The results in this text go back to patent US6875421B2, “Method for detecting chitin-containing organisms” (Albert Einstein College of Medicine of Yeshiva University, priority 1997, dated 2005).

A short description of data set [1]: Toxicity: solution spread on dorsum of hands of volunteers. The following applies: 1% solution on dorsum of hands, 12 hours continuously. It counts as in vivo, human. As for the experimental part: The 1% solution was also spread on the dorsum of four hands of volunteers and allowed to remain continuously for 12 hours before being washed off.
A further data set deals with P. capitis nits. Description: Visualizing nits on human hair under UV light. To be noted: hair with attached nits dipped into 1% solution for two minutes, examined wet under UV light. An excerpt: Human hair with attached P. capitis nits obtained as a waste product after barbering were obtained and dipped into a 1% solution of calcofluor white for two minutes. The hair was removed and examined wet under UV light. […] Identification was easy, specific, and totally unambiguous.

For another data set, the system named is deer ticks. Description: Visualizing deer ticks under long range UV light. The arrangement: species or system deer tick. An excerpt:
Use as a visualizing agent for deer ticks was investigated as well. Live deer ticks were gathered from a wooded area in Westchester County, N.Y. and sprayed with a 1% solution of Calcofluor white. The ticks were placed on a white cotton sheet and exposed to long range UV light from a portable UV lamp.

For the molecule `O=S(=O)(O)c1cc(Nc2nc(Nc3ccccc3)nc(N(CCO)CCO)n2)ccc1/C=C/c1ccc(Nc2nc(Nc3ccccc3)nc(N(CCO)CCO)n2)cc1S(=O)(=O)O` [calcofluor white], in data set [1], the “physical reactions such as pruritus, erythema, induration or discoloration” value is “did not provoke any physical reactions” and the “physical sensation on skin” value is given as “caused no physical sensation”. Also, in the data set on P. capitis nits, the “visualization of nits (fluorescence) under UV light” value is given as “clearly seen as brightly fluorescent white ovoid bodies”. Moreover, in the data set with deer ticks (live ticks sprayed with 1% solution, on white cotton sheet, portable UV lamp), the “visualization of deer ticks (fluorescence) under long range UV light” value is on record as “easily visualized as brightly fluorescent objects”. Further, the “fluorescence of deer ticks after subsequent spray” value in the data set with deer ticks (ticks without autofluorescence, then sprayed and exposed to ultraviolet light) was “intense fluorescence”.
